# Measured values: article PMC6136712, “Ex vivo drug sensitivity testing as a means for drug repurposing in esophageal adenocarcinoma” (PLoS ONE, 2018)
# Structures can show the parent of a compound that is named as a salt.
# Tested on: normal esophageal epithelium cell line EACN42
# Experiment: FDA library drug sensitivity testing (CellTiter-Glo, 72 h), normal control cells
# Assay type: cell-based, human
# Set-up: key to DSS: modified drug sensitivity score (DSSmod) from dose-response curve fit
# Conditions: EACN42 normal esophageal cells, 72 h; for EC50: cell viability (ATP), max test concentration 10μM; for DSS: drug sensitivity score
# Method: The normal esophageal epithelium cell line EACN42 was established in the Capobianco laboratory. The cell lines was derived from human normal epithelium and immortalized using HPV E6-E7.
# Drug sensitivity testing (DST) was performed as described previously. […] Individual drugs were dissolved in 100% DMSO and tested in duplicates starting at a maximal test concentration of 10μM then over a 20,000-fold concentration range to generate dose response curves. Wells with assay buffer containing DMSO served as negative controls. 1000 exponentially growing cells were seeded per well in 384-well micro-titer plates and incubated in the presence of compounds in a humidified environment at 37°C and 5% CO2. After 72 hours of treatment, cell viability was assessed by measuring ATP levels via bioluminescence (CellTiter-Glo, Promega) according to manufactures recommendations. Interpretation of curve parameters was performed according to the modified drug sensitivity scoring (DSSmod) function developed by Swords et al. […] Given in this way, the sDSSmod incorporated information on each drug’s potency, efficacy, effect range and therapeutic index, making it possible to prioritize compounds over multiple parameters using a single numerical metric. […] All calculations and scoring routines are implemented in MatLab and additional curve fitting and statistical analyses are performed in GraphPad prism.
Compound,DSS,EC50 (Homo sapiens),further results
CN[C@H]1C[C@@H](N)[C@H](O)[C@@H](O[C@@H]2O[C@H](CO)[C@H](O)[C@@H]3OC4(O[C@H]23)O[C@H]([C@@H](N)CO)[C@H](O)[C@H](O)[C@H]4O)[C@@H]1O (stereo partly drawn) [Hygromycin B],3.8,–,EC50: 7770 nM
O=P1(NCCCl)OCCCN1CCCl (stereo not drawn) [Ifosfamide],0,–,–
Cc1ccc(NC(=O)c2ccc(CN3CCN(C)CC3)cc2)cc1Nc1nccc(-c2cccnc2)n1 [Imatinib],0,–,–
CC(C)Cn1cnc2c(N)nc3ccccc3c21 [Imiquimod],0,2000 nM,–
CC1=C(/C=C/C(C)=C/C=C/C(C)=C\C(=O)O)C(C)(C)CCC1 [Isotretinoin],0,–,–
CCC(C)n1ncn(-c2ccc(N3CCN(c4ccc(OCC5COC(Cn6cncn6)(c6ccc(Cl)cc6Cl)O5)cc4)CC3)cc2)c1=O (stereo not drawn) [Itraconazole],0,–,–
Cl.N=C(N)NCCC[C@H](N)C(=O)O [L-Arginine HCl],0,–,EC50: 10 nM
Nc1nnc(-c2cccc(Cl)c2Cl)c(N)n1 [Lamotrigine],0,–,–
CS(=O)(=O)CCNCc1ccc(-c2ccc3ncnc(Nc4ccc(OCc5cccc(F)c5)c(Cl)c4)c3c2)o1 [Lapatinib],0,40 nM,–
Nc1cccc2c1CN(C1CCC(=O)NC1=O)C2=O (stereo not drawn) [Lenalidomide],0,–,–
N#Cc1ccc(C(c2ccc(C#N)cc2)n2cncn2)cc1 [Letrozole],0,60 nM,–
Nc1nc2c(c(=O)[nH]1)N(C=O)C(CNc1ccc(C(=O)N[C@@H](CCC(=O)O)C(=O)O)cc1)CN2 (stereo partly drawn) [Leucovorin Calcium],0.04,90 nM,–
CC#CCn1c(N2CCC[C@@H](N)C2)nc2c1c(=O)n(Cc1nc(C)c3ccccc3n1)c(=O)n2C [Linagliptin],0,380 nM,–
CCC[C@@H]1C[C@@H](C(=O)N[C@@H]([C@H]2O[C@H](SC)[C@H](O)[C@@H](O)[C@H]2O)[C@@H](C)O)N(C)C1 [Lincomycin hydrochloride],0,990 nM,–
O=NN(CCCl)C(=O)NC1CCCCC1 [Lomustine],0,–,–
O=C(O)c1nn(Cc2ccc(Cl)cc2Cl)c2ccccc12 [Lonidamine],0,–,–
Cc1ccc(NC(=O)c2ccc(CN3CCN(C)CC3)cc2)cc1Nc1nc(-c2cccnc2)cs1 [Masitinib],0,–,–
CC(=O)O[C@]1(C(C)=O)CC[C@H]2[C@@H]3C[C@H](C)C4=CC(=O)CC[C@]4(C)[C@H]3CC[C@@]21C [Medroxyprogesterone acetate],0,–,–
CC(=O)O[C@]1(C(C)=O)CC[C@H]2[C@@H]3C=C(C)C4=CC(=O)CC[C@]4(C)[C@H]3CC[C@@]21C [Megestrol Acetate],0,–,–
C=C1c2cccc(O)c2C(=O)C2=C(O)[C@]3(O)C(=O)C(C(N)=O)=C(O)[C@@H](N(C)C)[C@@H]3[C@@H](O)[C@H]12 [Methacycline hydrochloride],0,> 10000 nM,–
Cn1nnc2c(C(N)=O)ncn2c1=O [Methazolastone],0,–,–
CC#C[C@]1(O)CC[C@H]2[C@@H]3CCC4=CC(=O)CCC4=C3[C@@H](c3ccc(N(C)C)cc3)C[C@@]21C [Mifepristone],0,–,–

Compound,DSS,EC50 (Homo sapiens),further results
Nc1nc(CC(=O)Nc2ccc(CCNC[C@H](O)c3ccccc3)cc2)cs1 [Mirabegron],0,20 nM,–
Clc1ccc(C(c2ccccc2Cl)C(Cl)Cl)cc1 (stereo not drawn) [Mitotane],0,6 nM,–
NC(=O)c1ncn([C@@H]2O[C@H](CO)[C@@H](O)[C@H]2O)c1O [Mizoribine],0,6 nM,–
N=C(N)/N=C(\N)N1CCOCC1 [Moroxydine],0,–,–
C=CCN1CC[C@]23c4c5ccc(O)c4O[C@H]2C(=O)CC[C@@]3(O)[C@H]1C5 [Naloxone HCl],0,–,–
COc1nc(N)nc2c1ncn2[C@@H]1O[C@H](CO)[C@@H](O)[C@@H]1O [Nelarabine],0,–,–
COC(=O)C1=C(C#N)NC(C)=C(C(=O)OC(C)C)C1c1cccc([N+](=O)[O-])c1 (stereo not drawn) [Nilvadipine],0,10 nM,–
COc1ccc2c(c1OC)C(=O)O[C@@H]2[C@H]1c2c(cc3c(c2OC)OCO3)CCN1C [Noscapine HCl],0,–,–
CC1COc2c(N3CCN(C)CC3)c(F)cc3c(=O)c(C(=O)O)cn1c23 (stereo not drawn) [Ofloxacin],0,–,–
O=C1[O][Pt]2([NH][C@@H]3CCCC[C@H]3[NH]2)[O]C1=O [Oxaliplatin],0.06,–,treatment response in words: minimal treatment effects
C[C@@]12C[C@@]3(O)O[C@@H](O1)[C@]1(COC(=O)c4ccccc4)[C@H]3C[C@@]12O[C@@H]1O[C@H](CO)[C@@H](O)[C@H](O)[C@H]1O [Paeoniflorin],0,–,–
NCCC(O)(P(=O)([O-])O)P(=O)([O-])O.[Na+].[Na+] [Pamidronate Disodium],0,–,–
Cc1ccc(Nc2nccc(N(C)c3ccc4c(C)n(C)nc4c3)n2)cc1S(N)(=O)=O [Pazopanib],0,–,–
CCCCC1C(=O)N(c2ccccc2)N(c2ccccc2)C1=O [Phenylbutazone],0,–,–
CC[C@@H]1/C=C(\C)C[C@H](C)C[C@H](OC)[C@H]2O[C@@](O)(C(=O)C(=O)N3CCCC[C@H]3C(=O)O[C@H](/C(C)=C/[C@@H]3CC[C@H](Cl)[C@H](OC)C3)[C@H](C)[C@@H](O)CC1=O)[C@H](C)C[C@@H]2OC [Pimecrolimus],1.11,5300 nM,–
CCc1ccc(CCOc2ccc(CC3SC(=O)NC3=O)cc2)nc1 (stereo not drawn) [Pioglitazone],0,–,–
Nc1cccc2c1C(=O)N(C1CCC(=O)NC1=O)C2=O (stereo not drawn) [Pomalidomide],0,0.158 nM,–
C[C@]12C=CC(=O)C=C1CC[C@@H]1[C@@H]2C(=O)C[C@@]2(C)[C@H]1CC[C@]2(O)C(=O)CO [Prednisone],0,–,–
CNNCc1ccc(C(=O)NC(C)C)cc1 [Procarbazine HCl],0,–,–
CNC(=O)c1cc(Oc2ccc(NC(=O)Nc3ccc(Cl)c(C(F)(F)F)c3)c(F)c2)ccn1 [Regorafenib],1.85,> 10000 nM,–
CN(CCOc1ccc(CC2SC(=O)NC2=O)cc1)c1ccccn1 (stereo not drawn) [Rosiglitazone],0,–,–
N#CC[C@H](C1CCCC1)n1cc(-c2ncnc3[nH]ccc23)cn1 [Ruxolitinib],0,–,–

Compound,DSS,EC50 (Homo sapiens),further results
CCCC(=O)[O-].[Na+] [Sodium butyrate],0,–,–
CNC(=O)c1cc(Oc2ccc(NC(=O)Nc3ccc(Cl)c(C(F)(F)F)c3)cc2)ccn1 [Sorafenib],1.79,9620 nM,–
CC1=C(CC(=O)O)c2cc(F)ccc2/C1=C\c1ccc([S+](C)[O-])cc1 (stereo not drawn) [Sulindac],0,50 nM,–
CCN(CC)CCNC(=O)c1c(C)[nH]c(/C=C2\C(=O)Nc3ccc(F)cc32)c1C [Sunitinib Malate],0,10 nM,–
C=CC[C@@H]1/C=C(\C)C[C@H](C)C[C@H](OC)[C@H]2O[C@@](O)(C(=O)C(=O)N3CCCC[C@H]3C(=O)O[C@H](/C(C)=C/[C@@H]3CC[C@@H](O)[C@H](OC)C3)[C@H](C)[C@@H](O)CC1=O)[C@H](C)C[C@@H]2OC [Tacrolimus],0,–,–
CC/C(=C(\c1ccccc1)c1ccc(OCCN(C)C)cc1)c1ccccc1 [Tamoxifen Citrate],0,–,–
CCOC(=O)[C@H](CCc1ccccc1)N[C@H]1CS[C@H](c2cccs2)CN(CC(=O)O)C1=O [Temocapril HCl],0,–,–
O=C1CCC(N2C(=O)c3ccccc3C2=O)C(=O)N1 (stereo not drawn) [Thalidomide],0,–,–
C[C@@H]1CCN(C(=O)CC#N)C[C@@H]1N(C)c1ncnc2[nH]ccc12 [Tofacitinib citrate],0,–,–
CCCCNC(=O)NS(=O)(=O)c1ccc(C)cc1 [Tolbutamide],0,60 nM,–
Cc1cccc(N(C)C(=S)Oc2ccc3ccccc3c2)c1 [Tolnaftate],0,–,–
CC1=C(/C=C/C(C)=C/C=C/C(C)=C/C(=O)O)C(C)(C)CCC1 [Tretinoin],0,–,–
CC1(C)O[C@@H]2C[C@H]3[C@@H]4CCC5=CC(=O)C=C[C@]5(C)[C@@]4(F)[C@@H](O)C[C@]3(C)[C@]2(C(=O)CO)O1 [Triamcinolone Acetonide],0,–,–
CC(C)C[C@H](NC(=O)[C@@H](O)[C@H](N)Cc1ccccc1)C(=O)O [Ubenimex],0,–,–
CCCC(CCC)C(=O)O [Valproic acid sodium salt],0,2000 nM,–
CCCS(=O)(=O)Nc1ccc(F)c(C(=O)c2c[nH]c3ncc(-c4ccc(Cl)cc4)cc23)c1F [Vemurafenib],0,50 nM,–
CC[C@]1(O)C[C@@H]2CN(CCc3c([nH]c4ccccc34)[C@@](C(=O)OC)(c3cc4c(cc3OC)N(C)[C@H]3[C@@](O)(C(=O)OC)[C@H](OC(C)=O)[C@]5(CC)C=CCN6CC[C@]43[C@@H]65)C2)C1 [Vinblastine],1.63,> 10000 nM,–
CCOC(=O)C1=C[C@]2(CC)CCCN3CCc4c(n1c1ccccc41)[C@@H]32 [Vinpocetine],0,–,–
CS(=O)(=O)c1ccc(C(=O)Nc2ccc(Cl)c(-c3ccccn3)c2)c(Cl)c1 [Vismodegib],0,–,–
CC(c1cc2ccccc2s1)N(O)C(N)=O (stereo not drawn) [Zileuton],0,–,–
Maraviroc,0,–,treatment response in words: low or no activity
